Measured values as given in patent US20200239530A1, “COMPOUNDS AND METHODS OF MODULATING PROTEIN DEGRADATION” (Vividion Therapeutics, Inc., priority 2017, published 2020).

Assays:
Test in all cases: Cysteine liganding, probe competition
Assay type in all cases: binding
[1] = target: T1, TNFAIP3 Tumor necrosis factor alpha-induced protein 3 (Homo sapiens, UniProt P21580)
T1 construct: Cells were resuspended in cold PBS on ice and sonicated with a probe sonicator to achieve lysis; endogenous in cells
T1 sequence (P21580 1-790): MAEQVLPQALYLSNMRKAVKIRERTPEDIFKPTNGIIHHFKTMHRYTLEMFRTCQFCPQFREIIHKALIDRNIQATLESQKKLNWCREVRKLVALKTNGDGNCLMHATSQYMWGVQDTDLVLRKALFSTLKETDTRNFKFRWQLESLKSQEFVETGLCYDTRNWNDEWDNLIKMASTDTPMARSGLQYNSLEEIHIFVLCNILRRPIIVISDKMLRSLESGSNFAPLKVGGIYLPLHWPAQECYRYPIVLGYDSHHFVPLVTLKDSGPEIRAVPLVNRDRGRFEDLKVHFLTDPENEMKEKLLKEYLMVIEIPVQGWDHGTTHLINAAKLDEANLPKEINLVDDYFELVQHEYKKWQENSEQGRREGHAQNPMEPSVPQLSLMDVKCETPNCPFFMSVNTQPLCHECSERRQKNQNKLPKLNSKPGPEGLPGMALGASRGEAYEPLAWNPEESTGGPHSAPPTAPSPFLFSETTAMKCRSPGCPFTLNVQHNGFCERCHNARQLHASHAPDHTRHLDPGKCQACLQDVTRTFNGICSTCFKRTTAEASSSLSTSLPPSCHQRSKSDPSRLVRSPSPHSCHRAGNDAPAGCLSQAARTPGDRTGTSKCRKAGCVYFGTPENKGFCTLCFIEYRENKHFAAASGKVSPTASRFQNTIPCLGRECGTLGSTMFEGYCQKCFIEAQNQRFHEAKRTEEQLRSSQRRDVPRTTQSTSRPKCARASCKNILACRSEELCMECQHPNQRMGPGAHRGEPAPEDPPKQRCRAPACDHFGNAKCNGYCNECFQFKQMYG
Method in brief: (§1)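 Read-out is loss of desthiobiotin iodoacetamide labelling at cysteines, measured on streptavidin-enriched tryptic peptides. Compound preincubation ran 1 hr at 25° C in PBS lysate holding 5 mg/ml proteome before the probe was added.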

[2] = target: T2, GAMT Guanidinoacetate N-methyltransferase (Homo sapiens, UniProt Q14353)
T2 construct: 200 μL of lysate containing 5 mg/ml proteome was treated with 2 μL of 100× compound stock; endogenous in cells
Method in brief: as §1

[3] = target: T3, AGPAT6 Glycerol-3-phosphate acyltransferase 4 (Homo sapiens, UniProt Q86UL3); conditions: for Liganded: AGPAT6 Res# 325, uniprot Q86UL3
T3 construct: Cells were resuspended in cold PBS on ice and sonicated with a probe sonicator to achieve lysis; endogenous in cells
T3 sequence (Q86UL3 38-456): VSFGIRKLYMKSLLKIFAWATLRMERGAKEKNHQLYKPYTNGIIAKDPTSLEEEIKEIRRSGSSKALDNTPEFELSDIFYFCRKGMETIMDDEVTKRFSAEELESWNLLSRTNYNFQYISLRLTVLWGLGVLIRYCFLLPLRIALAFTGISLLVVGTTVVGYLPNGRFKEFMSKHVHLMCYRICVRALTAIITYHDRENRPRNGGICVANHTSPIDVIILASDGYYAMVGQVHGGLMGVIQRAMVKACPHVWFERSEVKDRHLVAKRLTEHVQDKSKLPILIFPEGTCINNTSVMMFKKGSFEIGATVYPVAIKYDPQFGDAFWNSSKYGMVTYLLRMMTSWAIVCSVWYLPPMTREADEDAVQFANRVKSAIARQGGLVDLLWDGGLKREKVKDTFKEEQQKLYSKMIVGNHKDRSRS
Method in brief: as §1

[4] = target: T4, DIP2A Disco-interacting protein 2 homolog A (Homo sapiens, UniProt Q14689); conditions: for Liganded: DIP2A Res# 6, uniprot Q14689
T4 construct: 200 μL of lysate containing 5 mg/ml proteome was treated with 2 μL of 100× compound stock; endogenous in cells
Method in brief: as §1

[5] = TNFAIP3 Res# 54, uniprot P21580

T4 sequence (Q14689 whole entry): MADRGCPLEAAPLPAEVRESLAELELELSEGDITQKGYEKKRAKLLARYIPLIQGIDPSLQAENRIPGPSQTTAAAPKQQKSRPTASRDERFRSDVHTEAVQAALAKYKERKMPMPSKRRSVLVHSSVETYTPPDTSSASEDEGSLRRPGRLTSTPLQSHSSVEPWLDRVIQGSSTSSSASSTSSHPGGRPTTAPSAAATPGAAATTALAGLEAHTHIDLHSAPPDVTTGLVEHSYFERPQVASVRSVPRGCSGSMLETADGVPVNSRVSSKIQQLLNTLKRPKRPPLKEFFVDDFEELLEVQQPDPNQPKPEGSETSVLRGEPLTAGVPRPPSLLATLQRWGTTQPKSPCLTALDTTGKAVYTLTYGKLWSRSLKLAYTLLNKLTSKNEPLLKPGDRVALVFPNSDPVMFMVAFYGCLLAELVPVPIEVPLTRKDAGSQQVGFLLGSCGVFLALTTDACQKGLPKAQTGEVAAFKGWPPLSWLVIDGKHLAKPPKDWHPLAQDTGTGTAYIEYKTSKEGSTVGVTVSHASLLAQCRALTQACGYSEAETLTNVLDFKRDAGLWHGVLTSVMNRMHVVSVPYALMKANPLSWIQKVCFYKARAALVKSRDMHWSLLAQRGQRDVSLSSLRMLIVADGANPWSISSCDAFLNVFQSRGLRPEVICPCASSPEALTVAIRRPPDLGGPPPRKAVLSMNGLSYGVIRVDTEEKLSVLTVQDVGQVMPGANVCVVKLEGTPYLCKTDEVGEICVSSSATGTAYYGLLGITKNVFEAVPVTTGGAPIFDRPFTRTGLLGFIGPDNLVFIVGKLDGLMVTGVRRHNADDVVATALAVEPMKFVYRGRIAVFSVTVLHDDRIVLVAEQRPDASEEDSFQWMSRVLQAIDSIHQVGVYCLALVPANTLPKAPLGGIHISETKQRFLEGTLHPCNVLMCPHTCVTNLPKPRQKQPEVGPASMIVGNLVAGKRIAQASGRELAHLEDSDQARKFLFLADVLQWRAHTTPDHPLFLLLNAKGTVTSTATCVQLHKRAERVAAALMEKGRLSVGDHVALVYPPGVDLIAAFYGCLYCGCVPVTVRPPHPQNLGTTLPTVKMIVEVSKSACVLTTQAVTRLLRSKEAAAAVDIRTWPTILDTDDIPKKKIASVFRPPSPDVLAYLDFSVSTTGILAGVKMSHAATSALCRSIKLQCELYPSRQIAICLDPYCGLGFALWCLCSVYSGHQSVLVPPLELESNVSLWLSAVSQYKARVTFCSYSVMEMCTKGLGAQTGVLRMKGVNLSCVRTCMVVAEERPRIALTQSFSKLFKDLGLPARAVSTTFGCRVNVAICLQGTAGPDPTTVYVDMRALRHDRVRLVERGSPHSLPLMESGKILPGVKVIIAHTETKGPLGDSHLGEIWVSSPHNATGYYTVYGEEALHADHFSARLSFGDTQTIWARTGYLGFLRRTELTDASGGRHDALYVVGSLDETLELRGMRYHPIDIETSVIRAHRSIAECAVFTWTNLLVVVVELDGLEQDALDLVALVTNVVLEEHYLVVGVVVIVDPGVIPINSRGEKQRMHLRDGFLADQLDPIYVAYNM

| Structure (SMILES) | Liganded [1, 5] | Liganded ([1]; TNFAIP3 Res# 536, uniprot P21580) | Liganded ([1]; TNFAIP3 Res# 579, uniprot P21580) | Liganded ([2]; GAMT Res# 91, uniprot Q14353) | Liganded [3] | Liganded [4] | 100 Max ([2]; uniprot Q14353) | 100 ave ([2]; uniprot Q14353) | 500 ave ([2]; uniprot Q14353) | 500 Max ([2]; uniprot Q14353, in % (unit assumed)) | 100 Max ([3]; uniprot Q86UL3) | 100 ave ([3]; uniprot Q86UL3) | 500 Max ([3]; uniprot Q86UL3) | 500 ave ([3]; uniprot Q86UL3) | 100 Max ([4]; uniprot Q14689) | 100 ave ([4]; uniprot Q14689) | 500 Max ([4]; uniprot Q14689) | 500 ave ([4]; uniprot Q14689) |
| --- | --- | --- | --- | --- | --- | --- | --- | --- | --- | --- | --- | --- | --- | --- | --- | --- | --- | --- |
| COc1ccc2c(c1)CCCN2C(=O)CCl [KB02] | YES | YES | YES | YES | YES | YES |  |  |  |  |  |  |  |  |  |  |  |  |
| O=C(CCl)Nc1cc(C(F)(F)F)cc(C(F)(F)F)c1 [KBO3] | YES |  |  |  | YES | YES | −9.9 | −25.93 | 6.05 | 16.85 | 66.91 | 65.705 | 85.19 | 85.19 | 39.34 | 39.34 | 91.21 | 91.21 |
